The record followed here is patent US20180044343A1, “BICYCLIC IMIDAZOLO DERIVATIVE” (Sumitomo Dainippon Pharma Co., Ltd., priority 2015, published 2018).

For orientation: IC50 means the concentration that gives 50% inhibition.

Holding throughout (format): biochemical
One assay deals with PDE1B (Homo sapiens, UniProt Q01064). The experiment in a line: In vitro HTRF PDE1 inhibition assay (PDE1B). The following applies: in vitro PDE1B HTRF Assay; read-out: IC50.
For another assay, the target named is PDE1A3 (Homo sapiens, UniProt P54750). Description: In vitro HTRF PDE1 inhibition assay (PDE1A3). To be noted: PDE1A3, 100 nM cyclic GMP. The source says:
(§1) An exemplary procedure for the in vitro Homogenous Time Resolved Fluorescence assay, which can be used to determine the inhibitory action of compounds of the present invention toward PDE1 or its isoforms, follows.
(§2) The HTRF PDE1 assay utilized the HTRF (Homogenous Time Resolved Fluorescence) technology, which is based on the competition between unlabeled cyclic nucleotide and cyclic nucleotide labeled with XL665 for the binding to cyclic nucleotide-specific antibody labeled with cryptate. The HTRF signal is thus inversely proportional to the concentration of cyclic nucleotide being measured. Since phosphodiesterases break down cyclic nucleotides, the HTRF signal was used to determine PDE activity.
(§3) The Cisbio cGMP HTRF assay kit (Cat no: 62GM2PEC) was utilized. Cyclic GMP was diluted to 200 nM in HTRF assay buffer (1 mM CaCl2, 10 mM MgCl2, 10 mM Tris-HCl, 0.1% BSA, pH 7.4). 10 μl of compound or DMSO was diluted in 200 nM cyclic GMP solution and added to wells of a 96 well white plate to give 100 nM cyclic GMP in 1% DMSO final concentration. PDE (1A3, 1B or 1C) was diluted to 2× working concentration in HTRF assay buffer with 2 μg/ml Calmodulin, and 10 μl was added to initiate the reaction. The plate was then incubated for 45 minutes at 27° C. d2-Labelled cyclic GMP and anti-cGMP cryptate were diluted in 50 mM phosphate buffer, 0.8 M KF, 1% Triton X100, 0.2% BSA, pH 7.0. Following incubation 10 μl d2-cGMP, then 10 μl anti cGMP cryptate were added to each well and the plate was incubated for 60 minutes at room temperature. The plate was then read on Perkin Elmer EnVision at 2 different FRET readings ex/em 340 nm/665 nm and 340 nm/615 nm.
(§4) Compounds having an IC50 of <1 μM are denoted as +++. Compounds having an IC50 of 1-10 μM are denoted as ++. Compounds having an IC50 of 10-100 μM are denoted as +.
On the technique in general: Time-resolved FRET reads energy transfer from a long-lived donor to a nearby acceptor.

Another assay deals with PDE1C (Homo sapiens, UniProt Q14123). Description: In vitro HTRF PDE1 inhibition assay (PDE1C). The following applies: 100 nM cyclic GMP.
Text: as §1, §2, §3, §4

PDE1B, sequence (Q01064 whole entry): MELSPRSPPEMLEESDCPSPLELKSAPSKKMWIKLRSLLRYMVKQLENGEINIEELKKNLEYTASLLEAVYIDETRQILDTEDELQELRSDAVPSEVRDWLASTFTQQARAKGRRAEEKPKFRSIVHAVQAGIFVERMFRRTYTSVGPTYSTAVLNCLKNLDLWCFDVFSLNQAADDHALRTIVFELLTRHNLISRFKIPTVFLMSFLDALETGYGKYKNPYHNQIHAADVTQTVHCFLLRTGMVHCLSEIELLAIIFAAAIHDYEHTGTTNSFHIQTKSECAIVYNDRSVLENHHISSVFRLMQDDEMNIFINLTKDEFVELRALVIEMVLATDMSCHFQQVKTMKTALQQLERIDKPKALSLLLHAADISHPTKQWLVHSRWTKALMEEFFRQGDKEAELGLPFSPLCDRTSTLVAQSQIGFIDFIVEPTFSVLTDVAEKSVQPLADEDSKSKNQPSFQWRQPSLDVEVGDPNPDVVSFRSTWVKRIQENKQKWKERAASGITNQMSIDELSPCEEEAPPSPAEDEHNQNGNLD

Regarding `CCO[C@H]1CC[C@@H](COc2nn3c(C4CCOCC4)ncc3c(=O)n2C)CC1` [Example 247], the IC50 is below 1000 nM on PDE1B, below 1 µM against PDE1A3 and below 1 µM against PDE1C. For the compound `CCn1c(COc2ccc(F)cc2)nn2c(C3CCOCC3)ncc2c1=O` [Example 259, 3-Ethyl-2-[(4-fluorophenoxy)methyl]-7-(tetrahydro-2H-pyran-4-yl)imidazo[5,1-f][1,2,4]triazin-4(3H)-one], the IC50 on PDE1B was below 1000 nM.

With `CCn1c(COC2CCC(F)(F)CC2)nn2c(C3CCOCC3)ncc2c1=O` [Example 260, 2-{[(4,4-Difluorocyclohexyl)oxy]methyl}-3-ethyl-7-(tetrahydro-2H-pyran-4-yl)imidazo[5,1-f][1,2,4]triazin-4(3H)-one], the IC50 at PDE1B was below 1000 nM. Take `COc1nn2c(C(C)C)ncc2c(=O)n1Cc1ccccn1` [Example 262]: the IC50 at PDE1B is below 1000 nM.

As for `COc1nn2c(C(C)C)ncc2c(=O)n1CC1CCC(F)(F)CC1` [Example 263], the IC50 at PDE1B was below 1000 nM.

With `COc1nn2c(C3CCOCC3)ncc2c(=O)n1Cc1ccc(C)cc1` [Example 264], the IC50 on PDE1B is below 1000 nM.

With `COc1ccc(Cn2c(OC)nn3c(C4CCOCC4)ncc3c2=O)cc1` [Example 265], the IC50 at PDE1B is below 1000 nM. For `COc1cccc(Cn2c(OC)nn3c(C4CCOCC4)ncc3c2=O)c1` [Example 266], the IC50 on PDE1B was below 1000 nM. In the case of `COc1nn2c(C3CCOCC3)ncc2c(=O)n1Cc1cccnc1` [Example 267], the IC50 at PDE1B lay in the range of 1000 to 10000 nM.

On to `COc1nn2c(C3CCOCC3)ncc2c(=O)n1Cc1ccccn1` [Example 268], for which, on PDE1B, the IC50 lay in the range of 1000 to 10000 nM. Same read-out and setting: under `COc1nn2c(C3CCOCC3)ncc2c(=O)n1Cc1ccc(F)cn1` [Example 269] stands below 1000 nM. Still for that read-out and setting: under `CCCn1c(OC)nn2c(C3CCOCC3)ncc2c1=O` [Example 270] stands below 1000 nM; under `COc1nn2c(C3CCOCC3)ncc2c(=O)n1CC(C)C` [Example 271], below 1000 nM. Still for that read-out and setting: under `COc1nn2c(C3CCOCC3)ncc2c(=O)n1CC1CC1` [Example 272] stands below 1000 nM; under `COc1nn2c(C3CCOCC3)ncc2c(=O)n1CC1CCC1` [Example 273], below 1000 nM.

With `COc1nn2c(C3CCOCC3)ncc2c(=O)n1CC1CCCC1` [Example 274], at PDE1B, the IC50 is below 1000 nM. Still for that read-out and setting: the result for `COc1nn2c(C3CCOCC3)ncc2c(=O)n1CC1CCCCC1` [Example 275] reads below 1000 nM; that for `COc1nn2c(C3CCOCC3)ncc2c(=O)n1CCC(F)(F)F` [Example 276], 1000 to 10000 nM. The same measure, in the same setting: the result for `COCCn1c(OCC2CCC(F)(F)CC2)nn2c(C3CCOCC3)ncc2c1=O` [Example 277] reads 1000 to 10000 nM; that for `COCCn1c(OCC2CCC(F)(F)CC2)nn2c(C(C)C)ncc2c1=O` [Example 278], below 1000 nM; that for `COCCn1c(OCc2ccc(F)cc2)nn2c(C3CCOCC3)ncc2c1=O` [Example 279], below 1000 nM. For `COc1nn2c(C3CCOCC3)ncc2c(=O)n1Cc1ccc(C#N)cc1` [Example 280], the IC50 at PDE1B fell in the range of 10000 to 100000 nM. The same measure, in the same setting: the result for `COc1nn2c(C3CCOCC3)ncc2c(=O)n1Cc1ccncc1` [Example 281] reads 1000 to 10000 nM; that for `Cn1c(OCCC2(C(F)(F)F)CC2)nn2c(C3CCOCC3)ncc2c1=O` [Example 282], below 1000 nM. On the same count and under the same terms, under `Cn1c(OCC2CCC(OC(F)(F)F)CC2)nn2c(C3CCOCC3)ncc2c1=O` (stereo not drawn) [Example 284] stands below 1000 nM. Still for that read-out and setting: the result for `CCn1c(OCC2CCC(OC(F)(F)F)CC2)nn2c(C3CCOCC3)ncc2c1=O` (stereo not drawn) [Example 285] reads below 1000 nM. Consider `COC[C@H]1CC[C@H](COc2nn3c(C4CCOCC4)ncc3c(=O)n2C)CC1` [Example 286], for which, at PDE1B, the IC50 is below 1000 nM. Still for that read-out and setting: the result for `CCn1c(OC[C@H]2CC[C@H](COC)CC2)nn2c(C3CCOCC3)ncc2c1=O` [Example 287] reads below 1000 nM; that for `CCOC[C@H]1CC[C@H](COc2nn3c(C4CCOCC4)ncc3c(=O)n2CC)CC1` [Example 289], below 1000 nM; that for `Cn1c(OC[C@H]2CC[C@H](CO)CC2)nn2c(C3CCOCC3)ncc2c1=O` [Example 290], below 1000 nM. Still for that read-out and setting: the result for `CCO[C@H]1CC[C@H](COc2nn3c(C4CCOCC4)ncc3c(=O)n2C2CC2)CC1` [Example 291] reads below 1000 nM.

As to `Cn1c(OCc2ccc(C(F)(F)F)cc2)nn2c(C3CCOCC3)ncc2c1=O` [Example 292], the IC50 on PDE1B is below 1000 nM. Still for that read-out and setting: the result for `Cn1c(OCc2ccc(OC(F)(F)F)cc2)nn2c(C3CCOCC3)ncc2c1=O` [Example 293] reads below 1000 nM; that for `Cn1c(OCC2(C(F)(F)F)CCCC2)nn2c(C3CCOCC3)ncc2c1=O` [Example 295], below 1000 nM; that for `CCn1c(OCC2(C(F)(F)F)CCCC2)nn2c(C3CCOCC3)ncc2c1=O` [Example 296], below 1000 nM.

`Cn1c(OCC2(C(F)(F)F)CCCCC2)nn2c(C3CCOCC3)ncc2c1=O` [Example 297]: the IC50 at PDE1B is below 1000 nM.

With `Cn1c(OCC23CC4CC(CC(C4)C2)C3)nn2c(C3CCOCC3)ncc2c1=O` [Example 298], the IC50 on PDE1B is below 1000 nM. The same measure, in the same setting: under `Cn1c(OC2CCCC2)nn2c(C3CCOCC3)ncc2c1=O` [Example 299] stands below 1000 nM. Same read-out and setting: the result for `CCn1c(OC2CCCC2)nn2c(C3CCOCC3)ncc2c1=O` [Example 300] reads below 1000 nM; that for `Cn1c(O[C@H]2CC[C@H](O)CC2)nn2c(C3CCOCC3)ncc2c1=O` [Example 301], below 1000 nM. The same measure, in the same setting: under `Cn1c(OC2CCC(F)(F)CC2)nn2c(C3CCOCC3)ncc2c1=O` [Example 303] stands below 1000 nM; under `Cn1c(O[C@H]2CC[C@H](C(F)(F)F)CC2)nn2c(C3CCOCC3)ncc2c1=O` [Example 305, 3-methyl-7-(tetrahydro-2H-pyran-4-yl)-2-{[trans-4-(trifluoromethyl)cyclohexyl]oxy}-imidazo[5,1-f][1,2,4]triazin-4(3H)-one], below 1000 nM; under `Cn1c(O[C@H]2CC[C@@H](C(F)(F)F)CC2)nn2c(C3CCOCC3)ncc2c1=O` [Example 307], below 1000 nM. As to `CCn1c(O[C@H]2CC[C@@H](C(F)(F)F)CC2)nn2c(C3CCOCC3)ncc2c1=O` [Example 308], at PDE1B, the IC50 is below 1000 nM. The same measure, in the same setting: the result for `CO[C@H]1CC[C@H](Oc2nn3c(C4CCOCC4)ncc3c(=O)n2C(C)C)CC1` [Example 311] reads below 1000 nM; that for `CCO[C@H]1CC[C@H](Oc2nn3c(C4CCOCC4)ncc3c(=O)n2C)CC1` [Example 314], below 1000 nM. Still for that read-out and setting: under `COC[C@H]1CC[C@H](Oc2nn3c(C4CCOCC4)ncc3c(=O)n2C)CC1` [Example 316] stands below 1000 nM; under `CCn1c(O[C@H]2CC[C@@H](COC)CC2)nn2c(C3CCOCC3)ncc2c1=O` [Example 319], below 1000 nM.

Consider `CCOC[C@H]1CC[C@@H](Oc2nn3c(C4CCOCC4)ncc3c(=O)n2C)CC1` [Example 320], for which, on PDE1B, the IC50 was below 1000 nM.

With `CCOC[C@H]1CC[C@@H](Oc2nn3c(C4CCOCC4)ncc3c(=O)n2CC)CC1` [Example 321], the 50% inhibitory concentration (IC50) at PDE1B was below 1000 nM. Turning to `Cn1c(OC[C@H]2CC[C@H](C(F)(F)F)CC2)nn2c(C3(O)CCOCC3)ncc2c1=O` [Example 326, 7-(4-hydroxytetrahydro-2H-pyran-4-yl)-3-methyl-2-{[trans-4-(trifluoromethyl)cyclohexyl]-methoxy}imidazo[5,1-f][1,2,4]triazin-4(3H)-one], on PDE1B, the IC50 was 1000 to 10000 nM.

`Cn1c(OC[C@H]2CC[C@H](C(F)(F)F)CC2)nn2c(C3(O)CCCCC3)ncc2c1=O` [Example 327, 7-(1-Hydroxycyclohexyl)-3-methyl-2-{[trans-4-(trifluoromethyl)cyclohexyl]-methoxy}imidazo[5,1-f][1,2,4]triazin-4(3H)-one]: the IC50 at PDE1B fell in the range of 1000 to 10000 nM. For the compound `Cn1c(OC[C@H]2CC[C@H](C(F)(F)F)CC2)nn2c(C3=CCOCC3)ncc2c1=O` [Example 328, 7-(3,6-dihydro-2H-pyran-4-yl)-3-methyl-2-{[trans-4-(trifluoromethyl)cyclohexyl]methoxy}-imidazo[5,1-f][1,2,4]triazin-4(3H)-one], the IC50 on PDE1B was below 1000 nM. On to `Cn1c(OC[C@H]2CC[C@H](C(F)(F)F)CC2)nn2c(C3=CCCCC3)ncc2c1=O` [Example 329, 7-(Cyclohex-1-en-1-yl)-3-methyl-2-{[trans-4-(trifluoromethyl)cyclohexyl]-methoxy}imidazo[5,1-f][1,2,4]triazin-4(3H)-one], for which the IC50 on PDE1B was 1000 to 10000 nM. Same read-out and setting: the result for `CCn1c(OCC2CCC(F)(F)CC2)nn2c(N3CCCC3)ncc2c1=O` [Example 332, 2-[(4,4-Difluorocyclohexyl)methoxy]-3-ethyl-7-(pyrrolidin-1-yl)imidazo[5,1-f][1,2,4]triazin-4(3H)-one] reads 10000 to 100000 nM.
